According to the supplement of paper PMC11414989:

Tests used:
Conditions in all cases: exposure window: 6 hpf to 120 hpf, static, assay age: 120 hpf (5 dpf)
[1] = test system: Danio rerio larvae (Tropical 5D); assay: mean distance moved of exposed larvae, dark phase (µm per frame (1/25 s)); higher = more movement
Description: (§1)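 Larval photomotor response in Tropical 5D wild-type zebrafish. Larvae were statically exposed to each chemical from 6 hpf to 5 dpf in 96-well plates; morphologically abnormal larvae were excluded. At 120 hpf, larvae were tracked with Ethovision XT (25 frames/s) over the 2nd cycle of 3 min light and 3 min dark. Values are the mean movement metric of exposed larvae per phase; same-plate control means (plate-dependent baseline) are given as conditions.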

[2] = test system: Danio rerio larvae (Tropical 5D); assay: mean distance moved of exposed larvae, light phase (µm per frame (1/25 s)); higher = more movement
Description: as §1

[3] = test system: Danio rerio larvae (Tropical 5D); assay: mean angular velocity of exposed larvae, dark phase (angular velocity (unit not stated)); higher = more movement
Description: as §1

[4] = test system: Danio rerio larvae (Tropical 5D); assay: mean angular velocity of exposed larvae, light phase (angular velocity (unit not stated)); higher = more movement
Description: as §1

Structure (SMILES): O=C(O)C(F)(F)C(F)(F)C(F)(F)C(F)(F)C(F)(F)C(F)(F)C(F)(F)C(F)(F)C(F)(F)C(F)(F)C(F)(F)C(F)(F)C(F)(F)C(F)(F)C(F)(F)C(F)(F)C(F)(F)F [Perfluoro-n-octadecanoic acid]
- mean distance moved of exposed larvae ([1]; 0.25 µM): 10.3
- mean distance moved of exposed larvae ([2]; 0.25 µM): 3.51
- mean angular velocity of exposed larvae ([3]; 0.25 µM): 0.571
- mean angular velocity of exposed larvae ([4]; 0.25 µM): 0.146

Structure (SMILES): O=P(O)(O)C(F)(F)C(F)(F)C(F)(F)C(F)(F)C(F)(F)C(F)(F)C(F)(F)C(F)(F)C(F)(F)C(F)(F)F [Perfluorodecylphosphonic acid]
- mean distance moved of exposed larvae ([1]; 0.25 µM): 9.21
- mean distance moved of exposed larvae ([2]; 0.25 µM): 1.45
- mean angular velocity of exposed larvae ([3]; 0.25 µM): 0.34
- mean angular velocity of exposed larvae ([4]; 0.25 µM): 0.0471

Structure (SMILES): O=S(=O)(O)C(F)(F)C(F)(F)C(F)(F)C(F)(F)C(F)(F)C(F)(F)F [Perfluorohexanesulfonic acid]
- mean distance moved of exposed larvae ([1]; 0.015 µM): 11.6
- mean distance moved of exposed larvae ([1]; 0.046 µM): 20.4
- mean distance moved of exposed larvae ([1]; 0.14 µM): 13.8
- mean distance moved of exposed larvae ([1]; 0.41 µM): 17.2
- mean distance moved of exposed larvae ([1]; 1.23 µM): 23
- mean distance moved of exposed larvae ([1]; 3.7 µM): 22.9
- mean distance moved of exposed larvae ([1]; 11.1 µM): 25.2
- mean distance moved of exposed larvae ([1]; 33.3 µM): 8.39
- mean distance moved of exposed larvae ([1]; 66.5 µM): 3.78
- mean distance moved of exposed larvae ([1]; 100 µM): 3.15
- mean distance moved of exposed larvae ([2]; 0.015 µM): 2.17
- mean distance moved of exposed larvae ([2]; 0.046 µM): 2.46
- mean distance moved of exposed larvae ([2]; 0.14 µM): 1.98
- mean distance moved of exposed larvae ([2]; 0.41 µM): 2.2
- mean distance moved of exposed larvae ([2]; 1.23 µM): 3.86
- mean distance moved of exposed larvae ([2]; 3.7 µM): 3.31
- mean distance moved of exposed larvae ([2]; 11.1 µM): 4.59
- mean distance moved of exposed larvae ([2]; 33.3 µM): 8.09
- mean distance moved of exposed larvae ([2]; 66.5 µM): 3.27
- mean distance moved of exposed larvae ([2]; 100 µM): 3.18
- mean angular velocity of exposed larvae ([3]; 0.015 µM): 0.475
- mean angular velocity of exposed larvae ([3]; 0.046 µM): 0.762
- mean angular velocity of exposed larvae ([3]; 0.14 µM): 0.609
- mean angular velocity of exposed larvae ([3]; 0.41 µM): 0.788
- mean angular velocity of exposed larvae ([3]; 1.23 µM): 0.884
- mean angular velocity of exposed larvae ([3]; 3.7 µM): 0.738
- mean angular velocity of exposed larvae ([3]; 11.1 µM): 0.954
- mean angular velocity of exposed larvae ([3]; 33.3 µM): 0.358
- mean angular velocity of exposed larvae ([3]; 66.5 µM): 0.271
- mean angular velocity of exposed larvae ([3]; 100 µM): 0.173
- mean angular velocity of exposed larvae ([4]; 0.015 µM): 0.178
- mean angular velocity of exposed larvae ([4]; 0.046 µM): 0.0902
- mean angular velocity of exposed larvae ([4]; 0.14 µM): 0.121
- mean angular velocity of exposed larvae ([4]; 0.41 µM): 0.123
- mean angular velocity of exposed larvae ([4]; 1.23 µM): 0.25
- mean angular velocity of exposed larvae ([4]; 3.7 µM): 0.171
- mean angular velocity of exposed larvae ([4]; 11.1 µM): 0.153
- mean angular velocity of exposed larvae ([4]; 33.3 µM): 0.351
- mean angular velocity of exposed larvae ([4]; 66.5 µM): 0.241
- mean angular velocity of exposed larvae ([4]; 100 µM): 0.114

Structure (SMILES): O=P(O)(O)C(F)(F)C(F)(F)C(F)(F)C(F)(F)C(F)(F)C(F)(F)F [Perfluorohexylphosphonic acid]
- mean distance moved of exposed larvae ([1]; 0.25 µM): 24.1
- mean distance moved of exposed larvae ([2]; 0.25 µM): 5.18
- mean angular velocity of exposed larvae ([3]; 0.25 µM): 0.788
- mean angular velocity of exposed larvae ([4]; 0.25 µM): 0.148

Structure (SMILES): O=P(O)(O)C(F)(F)C(F)(F)C(F)(F)C(F)(F)C(F)(F)C(F)(F)C(F)(F)C(F)(F)F [Perfluorooctylphosphonic acid]
- mean distance moved of exposed larvae ([1]; 0.25 µM): 29.9
- mean distance moved of exposed larvae ([2]; 0.25 µM): 10.3
- mean angular velocity of exposed larvae ([3]; 0.25 µM): 0.959
- mean angular velocity of exposed larvae ([4]; 0.25 µM): 0.308

Structure (SMILES): O=S(=O)(O)C(F)(F)C(F)(F)C(F)(F)C(F)(F)F [Potassium perfluoro-1-butanesulfonate]
- mean distance moved of exposed larvae ([1]; 0.25 µM): 30.9
- mean distance moved of exposed larvae ([2]; 0.25 µM): 1.73
- mean angular velocity of exposed larvae ([3]; 0.25 µM): 1.11
- mean angular velocity of exposed larvae ([4]; 0.25 µM): 0.0624

Structure (SMILES): O=S(=O)(O)CCC(F)(F)C(F)(F)C(F)(F)C(F)(F)F [Sodium 1H,1H,2H,2H-perfluorohexane sulfonate(4:2)]
- mean distance moved of exposed larvae ([1]; 0.25 µM): 44.7
- mean distance moved of exposed larvae ([2]; 0.25 µM): 4.72
- mean angular velocity of exposed larvae ([3]; 0.25 µM): 1.24
- mean angular velocity of exposed larvae ([4]; 0.25 µM): 0.152

Structure (SMILES): O=S(=O)(O)C(F)(F)C(F)(F)C(F)(F)C(F)(F)C(F)(F)C(F)(F)C(F)(F)C(F)(F)Cl [Sodium 8-chloroperfluoro-1-octanesulfonate]
- mean distance moved of exposed larvae ([1]; 0.25 µM): 28.8
- mean distance moved of exposed larvae ([2]; 0.25 µM): 2.63
- mean angular velocity of exposed larvae ([3]; 0.25 µM): 0.945
- mean angular velocity of exposed larvae ([4]; 0.25 µM): 0.0987

Structure (SMILES): O=S(=O)(O)C(F)(F)C(F)(F)C(F)(F)C(F)(F)C(F)(F)F [Sodium Perfluoro-1-pentanesulfonate]
- mean distance moved of exposed larvae ([1]; 0.25 µM): 34.7
- mean distance moved of exposed larvae ([2]; 0.25 µM): 5.23
- mean angular velocity of exposed larvae ([3]; 0.25 µM): 1.28
- mean angular velocity of exposed larvae ([4]; 0.25 µM): 0.235

Structure (SMILES): O=P(O)(C(F)(F)C(F)(F)C(F)(F)C(F)(F)C(F)(F)C(F)(F)F)C(F)(F)C(F)(F)C(F)(F)C(F)(F)C(F)(F)C(F)(F)F [Sodium bis(perfluorohexyl)phosphinate]
- mean distance moved of exposed larvae ([1]; 0.25 µM): 14.2
- mean distance moved of exposed larvae ([2]; 0.25 µM): 1.35
- mean angular velocity of exposed larvae ([3]; 0.25 µM): 0.687
- mean angular velocity of exposed larvae ([4]; 0.25 µM): 0.163

Structure (SMILES): O=P(O)(C(F)(F)C(F)(F)C(F)(F)C(F)(F)C(F)(F)C(F)(F)C(F)(F)C(F)(F)F)C(F)(F)C(F)(F)C(F)(F)C(F)(F)C(F)(F)C(F)(F)C(F)(F)C(F)(F)F [Sodium bis(perfluorooctyl)phosphinate]
- mean distance moved of exposed larvae ([1]; 0.25 µM): 15.1
- mean distance moved of exposed larvae ([2]; 0.25 µM): 2.89
- mean angular velocity of exposed larvae ([3]; 0.25 µM): 0.704
- mean angular velocity of exposed larvae ([4]; 0.25 µM): 0.119

Structure (SMILES): O=S(=O)(O)C(F)(F)C(F)(F)C(F)(F)C(F)(F)C(F)(F)C(F)(F)C(F)(F)C(F)(F)C(F)(F)C(F)(F)F [Sodium perfluoro-1-decanesulfonate]
- mean distance moved of exposed larvae ([1]; 0.25 µM): 24.8
- mean distance moved of exposed larvae ([2]; 0.25 µM): 6.8
- mean angular velocity of exposed larvae ([3]; 0.25 µM): 0.897
- mean angular velocity of exposed larvae ([4]; 0.25 µM): 0.372
